From patent US20170217956A1, “AZAINDOLE RETINOIC ACID RECEPTOR-RELATED ORPHAN RECEPTOR MODULATORS AND USES THEREOF” (INNOV17 LLC, priority 2014, published 2017)

How the values were obtained:
Assay type in all cases: cell-based
Details in all cases: 72 h; human CD4+ T cells under TH17-polarizing conditions, 3 days, supernatant ELISA, 0.1% DMSO
IL-17A = assay: Human TH17 cytokine inhibition as measured by ELISA (IL-17A)
Procedure: (§1) Peripheral blood mononuclear cells (PBMCs) were sourced from freshly prepared leukocyte enriched plasma (buffy coat) from healthy donors (New York Blood Center). PBMCs were isolated by density gradient centrifugation using Ficoll-Paque™ PLUS (GE Healthcare). Human CD4+ T cells were seeded into 96-well plates (5×10^4 cells/well) and activated with plate-bound anti-human (h)-CD3 antibody and soluble h-aCD28 (both at 1 ug/ml; eBioscience) and differentiated into TH17 cells with 20 ng/mL h-IL-6, 5 ng/mL h-TGF-β1, 10 ng/mL h-IL-23 (eBioscience) and 10 ng/mL IL-1β (Miltenyi Biotec) in serum-free TexMACS Medium (Miltenyi Biotec) supplemented with 1% Penicillin/Streptomycin (Lonza) for 3 days. CD4+ T cells propagated under TH17-polarizing conditions were cultured in the presence or absence of various concentrations of compounds with a final concentration of 0.1% DMSO. Supernatants were collected and stored at −20° C. until assayed for IL-17A, IL-17F and IL-21 levels by “Ready-Set-Go” ELISA kits (eBioscience) as per manufacturer's instructions. Endpoint absorbance was read at 450 nm using a microplate reader (Perkin Elmer).

IL-17F = assay: Human TH17 cytokine inhibition as measured by ELISA (IL-17F)
Procedure: as §1

IL-21 = assay: Human TH17 cytokine inhibition as measured by ELISA (IL-21)
Procedure: as §1

IL-22 = assay: Human TH17 cytokine inhibition as measured by ELISA (IL-22)

Measured: IC50

C[C@@H]1C[C@H](Cn2ccc3nc(-c4cn[nH]c4)ccc32)CN1C(=O)CCc1ccccc1 (racemic) [Example 41, rac.-cis-1-(4-((5-(1H-pyrazol-4-yl)-1H-pyrrolo[3,2-b]pyridin-1-yl)methyl)-2-methylpyrrolidin-1-yl)-3-phenylpropan-1-one]
< 10 µM: IL-17A | IL-17F | IL-21

C[C@H]1C[C@H](Cn2ccc3nc(-c4cn[nH]c4)ccc32)CN1C(=O)CCc1ccccc1 (racemic) [Example 40, rac.-trans-1-(4-((5-(1H-pyrazol-4-yl)-1H-pyrrolo[3,2-b]pyridin-1-yl)methyl)-2-methylpyrrolidin-1-yl)-3-phenylpropan-1-one]
< 10 µM: all assays above
